In US20230257373A1, “QUORUM SENSING INHIBITORS AND METHODS OF USE” (priority 2020, published 2023):
pIC50, pKd: −log10 of the molar value. Like-named read-outs stand apart in the source and are kept apart here.

Assays:
[1] = biological target: T1, SmcR (Vibrio vulnificus, UniProt Q9L8G8); experiment: EMSA DNA binding activity of SmcR; type: biochemical, V. vulnificus; conditions: saturating concentrations
Description: We noted that Qstatin and PTSP are both predicted to bind in the putative ligand binding pocket of SmcR. It is currently unknown how Qstatin allosterically affects DNA binding through its interactions in the ligand binding domain. […] We therefore also assessed the effect of sulfonamide PTSP on the DNA binding activity of LuxR and SmcR in vitro. […] (Kim et al., 2018).
(§1) SmcR and LuxR were purified as described previously. EMSAs were conducted as described previously using oligonucleotides corresponding to the luxC and vvpE promoter sequences. ITC analysis was conducted using purified LuxR or His-tagged SmcR, each in gel-filtration buffer (25 mM Tris pH 7.5, 300 mM NaCl, 0.5 mM EDTA, 1 mM DTT, 2% DMSO). All molecules analyzed were diluted in the same buffer. The samples were degassed for 10 min by vacuum aspiration. Titrations were performed on a Nano-ITC (TA Instruments). […] Thermograms were analyzed using NanoAnalyze software with the independent binding model.

[2] = biological target: T1, SmcR; experiment: ITC analysis of SmcR interaction with inhibitors; type: binding, V. vulnificus
From the text: (§2) To test the validity of the modelling predictions for PTSP, we performed isothermal titration calorimetry (ITC) to determine the binding affinity of SmcR and LuxR for PTSP. […] We noted that PTSP binding to both LuxR and SmcR had lower entropy and enthalpy compared to SmcR binding to Qstatin. […] Thus, we conclude that the efficacy of PTSP inhibition in vivo in these two Vibrio species correlates to the binding affinity determined in vitro for these two proteins.
as §1

[3] = test system: V. vulnificus; experiment: Growth of V. vulnificus with inhibitor; type: cell-based; conditions: high concentrations
From the text: Many sulfonamide-containing compounds are known to target the folate synthesis pathway in bacteria and inhibit growth (bacteriostatic), and thus these “sulfa drugs” have been used as broad-spectrum antibiotics for decades (Hammoudeh et al., 2013, Roland et al., 1979). […] We also tested the stability of the inhibitors in bacterial cultures and the timing of the inhibitory effect.

[4] = test system: V. coralliilyticus protease activity; experiment: Protease assay (azocasein) in V. coralliilyticus; conditions: 2.5 μM PTSP vs DMSO
[5] = test system: V. vulnificus protease activity; experiment: Protease assay (azocasein) in V. vulnificus; conditions: for pIC50: Vibrio vulnificus
[6] = biological target: T2, V. campbellii LuxR (Vibrio harveyi, UniProt P21308); experiment: E. coli dual-color bioassay (pKM699 LuxR, pJV064 reporter); type: cell-based
T2 construct: expressed in transfected cells; host or cells: E. coli DH10B with pKM699 and reporter pJV064
T2 sequence (P21308 whole entry): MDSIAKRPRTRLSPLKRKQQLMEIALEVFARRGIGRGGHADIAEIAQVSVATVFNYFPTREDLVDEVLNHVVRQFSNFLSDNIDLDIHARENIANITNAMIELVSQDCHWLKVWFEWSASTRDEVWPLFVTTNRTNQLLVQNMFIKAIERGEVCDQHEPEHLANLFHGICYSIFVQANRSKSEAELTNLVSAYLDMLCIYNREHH
From the text: Previously, we developed a bioassay that consists of a dual-color fluorescent reporter plasmid that reports both LuxR activities: the luxCDABE promoter is activated by LuxR and drives expression of gfp, and the VIBHAR_05222 promoter is repressed by LuxR and drives expression of mCherry (van Kessel et al., 2013b) (FIG. 2A). We used this reporter plasmid in an E. coli strain that also contains a plasmid expressing LuxR from its native promoter.
A bioassay was developed to monitor LuxR function that consists of a dual-color reporter plasmid (pJV064) that reports both activities: the luxCDABE promoter is activated by LuxR and drives expression of gfp, and the 05222 promoter is repressed by LuxR and drives expression of mCherry (van Kessel, Ulrich et al. 2013). This reporter plasmid was used in an E. coli strain that also contains a plasmid (pKM699) expressing LuxR from its native promoter. E. coli cultures containing these two plasmids were grown at 30° C. in LB medium with chloramphenicol (10 μg/ml) and tetracycline (10 μg/ml) to select for the two plasmids. Compounds were added to the cultures at a range of concentrations, and the cultures were incubated for 16 hours shaking at 30° C.
The dual-promoter fluorescence reporter assays were performed using E. coli strain DH10B containing two plasmids: 1) plasmid pJV064 containing the PluxC fused to GFP and P05222fused to mCherry to assess LuxR transcriptional regulation, and 2) plasmid pKM699 expressing V. campbellii luxR under control of its native promoter or empty vector pLAFR2.

[7] = test system: VcpR; experiment: E. coli bioassay expressing VcpR (IPTG-inducible plasmid); type: cell-based, V. coralliilyticus; conditions: 25 μM PTSP
From the text: We hypothesized that there were several possible reasons for the observed difference in PTSP inhibition in the various Vibrio species, including but not limited to: 1) differences in LuxR-inhibitor interaction(s), 2) differences in diffusion of the inhibitor across the membranes, or 3) stability of the inhibitor in the cell and/or cell culture. To examine PTSP activity in a common strain background, we cloned the luxR gene from each Vibrio species into a plasmid under control of an IPTG-inducible promoter and assayed the effect of PTSP against these proteins in the E. coli bioassay. […] We conclude that the differences in PTSP activity in Vibrio species is due to differences in interaction between PTSP and the LuxR-type protein in each Vibrio.
In E. coli assays expressing the five different LuxR-type proteins (luxR, smcR, opaR, vcpR, hapR), slight changes to the protocol were implemented. The luxR genes were cloned under control of the IPTG-inducible Ptac promoter in plasmid pMMB67EH-kanR. […] Strains expressing hapR or smcR required 50 μM IPTG to observe activation of the GFP reporter; IPTG was not added to strains expressing luxR, vcpR, or opaR.

[8] = biological target: LuxR (Vibrio harveyi, UniProt P21308); experiment: ITC analysis of LuxR interaction with inhibitors; type: binding, V. campbellii; parameters: made in house; host or cells: E. coli BL21(DE3)
Sequence of LuxR (P21308 whole entry): as above
From the text: as §2, §1

[9] = test system: V. campbellii protease activity; experiment: Protease assay (azocasein) in V. campbellii; conditions: 2.5 μM PTSP vs DMSO

T1 sequence (Q9L8G8 entry or part of it): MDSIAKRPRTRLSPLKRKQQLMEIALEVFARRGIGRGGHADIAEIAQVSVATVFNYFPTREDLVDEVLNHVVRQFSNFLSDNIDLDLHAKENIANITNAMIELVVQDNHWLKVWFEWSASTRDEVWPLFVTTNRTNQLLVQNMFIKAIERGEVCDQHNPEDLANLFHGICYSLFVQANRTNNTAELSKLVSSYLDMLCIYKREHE

## O=S(=O)(c1cccs1)n1ccc(-c2ccccc2)n1 [Compound 10B]
[1]
  DNA binding to SmcR: did not alter DNA binding
[2]
  Ka: 4.85e+06 M⁻¹
  ΔG: -9.092 kcal/mol
  ΔH: -33.963 kcal/mol
  ΔS: −348.97 J/mol · K
  −TΔS: 24.869 kcal/mol
[2]; 25° C., read-out: Kd
  pKd: 6.64
[2]; listed as PTSP
  ΔG: -9.08 kcal/mol
[2]; read-out: Dissociation constant (Kd)
  pKd: 6.64
[3]
  Growth rate or growth yield: did not alter growth rate or growth yield
[4]
  Protease activity of wild-type strain: significantly reduced protease activity
[5]; 2.5 μM PTSP vs DMSO, V. vulnificus
  Protease activity of wild-type strain: significantly reduced protease activity
[5]; ATCC27562, read-out: IC50 of protease inhibition, V. vulnificus ATCC 27562
  pIC50: 8.17
[5]; read-out: IC50 of protease inhibition, V. vulnificus CMPC6
  pIC50: 7.11
[5]; read-out: IC50 of protease inhibition, V. vulnificus YJ016
  pIC50: 7.74
[6]; GFP and mCherry reporters
  Inhibition of LuxR in the E. coli bioassay (in words): most potent
[6]; addition to the culture
  Time after addition at which GFP production was blocked: 120 min
[6]; longest timepoint tested
  Duration for which block of GFP production was maintained: ≥ 16 h
[6]; read-out: IC50 in the bioassay (approximate)
  pIC50: 5.70 to 6.00
[7]
  Inhibition of VcpR in E. coli bioassay: inhibited
[8]
  Ka: 2.3e+06 M⁻¹
  ΔG: -8.626 kcal/mol
  ΔH: -32.529 kcal/mol
  ΔS: −335.40 J/mol · K
  −TΔS: 23.9 kcal/mol
[8]; 25° C.
  pKd: 6.29
[9]
  Protease activity of wild-type strain: significantly reduced protease activity
